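Tested at 5 concentrations; 48 h exposure; 96-well plates; endpoints linearly interpolated, else capped at highest concentration. The concentration for 50% growth inhibition is given as GI50. TGI denotes the concentration required for complete inhibition of growth.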
Legend:
Assay in all cases: inhibition of tumour cell growth, NCI panel, 48 h
HCC-2998 colon = system: HCC-2998 colon
MALME-3M melanoma = system: MALME-3M melanoma
SK-MEL-5 melanoma = system: SK-MEL-5 melanoma
RXF 393 renal = system: RXF 393 renal
SR leukemia = system: SR leukemia
MDA-MB-231 breast = system: MDA-MB-231 breast
BT-549 breast = system: BT-549 breast
RPMI-8226 leukemia = system: RPMI-8226 leukemia

Row | SMILES | GI50 (HCC-2998 colon) | TGI (HCC-2998 colon) | GI50 (MALME-3M melanoma) | TGI (MALME-3M melanoma) | GI50 (SK-MEL-5 melanoma) | TGI (SK-MEL-5 melanoma) | GI50 (RXF 393 renal) | TGI (RXF 393 renal) | GI50 (SR leukemia) | TGI (SR leukemia) | GI50 (MDA-MB-231 breast) | TGI (MDA-MB-231 breast) | TGI (BT-549 breast) | GI50 (RPMI-8226 leukemia) | TGI (RPMI-8226 leukemia) | GI50 (BT-549 breast)
1 | CC1=C(C(=O)OCc2ccccc2)C(c2ccc3c(c2)OCO3)n2c(nc3ccccc32)N1 (stereo unspecified) | > 33.2 µM | > 100 µM | 0.37 µM | > 100 µM | 0.472 µM | > 100 µM | 0.305 µM | > 100 µM | 0.4 µM | > 100 µM | > 92.6 µM | > 100 µM | > 100 µM |  |  | 
2 | Cc1cc(N2CCCCC2)nc(N(CCNc2ccnc3cc(Cl)ccc23)Cc2ccco2)n1 | 2.14 µM | 4.48 µM | 1.98 µM | 3.65 µM | 1.68 µM | 3.07 µM | 1.56 µM | 3.32 µM | 1.77 µM | 4.02 µM | 1.83 µM | 3.53 µM | 3.5 µM | 2 µM | 4.55 µM | 1.82 µM
3 | N#CSc1ncnc2nc[nH]c12 | 3.9 µM | > 100 µM | 10.6 µM | > 100 µM | 15.2 µM | > 100 µM | 21.6 µM | > 100 µM | 4.02 µM | 32.2 µM | 11.2 µM | > 100 µM | > 100 µM | 4.13 µM | > 100 µM | > 28.7 µM
4 | CC12CCC=CC1CCC1C2CCC2(C)C(c3ccc(=O)oc3)CCC12O (stereo unspecified) | 0.342 µM | 3.42 µM | 0.0423 µM | 0.204 µM | 0.0453 µM | 0.238 µM | 0.0167 µM | 0.047 µM | 0.0311 µM | 0.11 µM | 0.365 µM | 2.57 µM | 0.436 µM | 0.0994 µM | 0.777 µM | 0.0391 µM
5 | OCC1OC(n2ccc3c2ncn2ncnc32)C(O)C1O (stereo unspecified) | 3.09 µM | > 100 µM | 29 µM | > 100 µM | 12 µM | 50.1 µM | 0.989 µM | 13.8 µM | 2.96 µM | > 68.8 µM | 1.52 µM | > 100 µM | 25.2 µM | 6.62 µM | > 100 µM | 1.23 µM
6 | COc1cc(Cn2cc3c(c2)-c2oncc2CC3)cc(OC)c1OC | 0.0413 µM | 17 µM | 0.0254 µM | 30.3 µM | 0.0366 µM | 0.195 µM | 0.0255 µM | > 100 µM | 0.0286 µM | > 100 µM | 0.0601 µM | > 100 µM | > 100 µM | 0.0459 µM | 10.4 µM | 0.111 µM
7 | O=C(O)[C@@H]1C2CC([C@@H]1C(=O)O)[C@H](N1C(=O)CCC1=O)[C@@H]2Br (stereo partly specified) |  | > 100 µM |  | > 100 µM |  | > 100 µM |  | > 100 µM |  | > 100 µM |  | > 100 µM | > 100 µM |  | > 100 µM | 
8 | CC(C)(O)c1ccc(N2CCN(c3nnc(Cc4ccccc4)c4ccccc34)CC2)nc1 | 14 µM | 27.8 µM | 5.28 µM | 17.9 µM | 2.84 µM | 8.64 µM | 6.76 µM | 23.6 µM | 18.6 µM | > 100 µM | 5.95 µM | 32.2 µM | 24 µM |  |  | 6.28 µM
9 | CCOC(=O)c1c2c(n(CC(C)C)c1C)-c1nc[nH]c1C(=O)C2=O |  |  | 21.1 µM | 36.6 µM | 16.2 µM | 30.2 µM | 13.9 µM | 26.8 µM | 0.384 µM | 2.15 µM | 6.85 µM | 20.1 µM | 30.4 µM | 8.91 µM | 21.6 µM | 16.4 µM
10 | CC12CCC(=O)C=C1CCC1C2CCC2(C)C(C(=O)Cn3cnc4c(=S)nc[nH]c43)CCC12 (stereo unspecified) |  |  |  | > 100 µM |  | > 100 µM |  | 44 µM |  | > 100 µM |  | > 100 µM | > 100 µM |  | > 100 µM | 
11 | O=S(=O)(c1ccc(NC(=S)NCc2cccnc2)cc1)N1CCCCC1 | > 100 µM | > 100 µM | 84.9 µM | > 100 µM | 12.1 µM | 45.8 µM | 72.4 µM | > 100 µM | 36.8 µM | > 100 µM | 26.4 µM | > 100 µM | > 100 µM | 2.17 µM | > 100 µM | > 100 µM
12 | Nc1nc(/C=C\c2ccc([N+](=O)[O-])o2)nc(N2CCN(c3ccccc3)CC2)n1 | 10.1 µM | 25.8 µM |  |  | 6.14 µM | 25.1 µM | 2.94 µM | 41.5 µM | 3.59 µM | 83 µM | 3.51 µM | 13.3 µM | > 100 µM | 3.62 µM | > 100 µM | 15.7 µM

Reference: PubChem BioAssay (NCI)
